Values of other authors in patent US11791016B2, “Methods and systems for computer-generated predictive application of neuroimaging and gene expression mapping data” (NEUMORA THERAPEUTICS, INC., priority 2017, dated 2023).

How the values were obtained:
[1] = target: 5-HT2A serotonin receptor (Homo sapiens, UniProt P28223); details: healthy human subjects
histamine H3 receptor = target: T1, histamine H3 receptor (Homo sapiens, UniProt Q9Y5N1); details: patients with schizophrenia
T1 construct: host or cells: patients with schizophrenia, in vivo (Egan et al. 2013)

5HT6 receptors = 5HT6 receptors (Homo sapiens, UniProt P50406)
[2] = target: muscarinic M3 (CHRM3) receptor (Homo sapiens, UniProt P20309)
Sequence of muscarinic M3 (CHRM3) receptor (P20309 whole entry, species assumed): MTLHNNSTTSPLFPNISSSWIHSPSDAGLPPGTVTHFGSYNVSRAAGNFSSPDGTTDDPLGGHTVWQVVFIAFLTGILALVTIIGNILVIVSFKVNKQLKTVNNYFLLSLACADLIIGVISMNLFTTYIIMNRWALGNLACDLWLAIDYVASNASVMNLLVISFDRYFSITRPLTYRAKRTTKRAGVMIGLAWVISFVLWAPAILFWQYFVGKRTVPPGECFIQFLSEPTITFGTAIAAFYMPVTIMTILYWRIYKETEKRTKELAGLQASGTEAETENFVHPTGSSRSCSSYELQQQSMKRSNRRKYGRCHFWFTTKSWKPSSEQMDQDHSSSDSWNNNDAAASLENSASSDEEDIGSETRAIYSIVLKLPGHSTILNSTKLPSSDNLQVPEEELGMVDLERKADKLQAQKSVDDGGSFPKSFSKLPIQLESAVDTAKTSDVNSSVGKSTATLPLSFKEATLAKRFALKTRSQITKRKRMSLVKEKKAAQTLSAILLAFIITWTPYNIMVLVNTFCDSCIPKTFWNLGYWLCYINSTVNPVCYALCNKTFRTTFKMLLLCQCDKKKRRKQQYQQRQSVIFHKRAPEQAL

Sequence of 5-HT2A serotonin receptor (P28223 whole entry): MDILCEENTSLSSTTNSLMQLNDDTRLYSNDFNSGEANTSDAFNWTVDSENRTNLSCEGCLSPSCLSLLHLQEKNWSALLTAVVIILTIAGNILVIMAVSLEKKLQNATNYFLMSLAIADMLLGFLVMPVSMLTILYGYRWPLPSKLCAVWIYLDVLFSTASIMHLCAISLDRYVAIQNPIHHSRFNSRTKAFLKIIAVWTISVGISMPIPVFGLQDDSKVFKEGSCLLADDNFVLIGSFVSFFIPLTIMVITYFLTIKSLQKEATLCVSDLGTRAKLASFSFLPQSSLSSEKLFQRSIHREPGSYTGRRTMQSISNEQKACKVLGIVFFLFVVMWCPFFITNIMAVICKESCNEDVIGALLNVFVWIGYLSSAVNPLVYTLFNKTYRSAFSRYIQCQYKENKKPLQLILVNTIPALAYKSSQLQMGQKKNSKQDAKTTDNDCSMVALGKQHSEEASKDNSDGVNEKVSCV
T1 sequence (Q9Y5N1 whole entry): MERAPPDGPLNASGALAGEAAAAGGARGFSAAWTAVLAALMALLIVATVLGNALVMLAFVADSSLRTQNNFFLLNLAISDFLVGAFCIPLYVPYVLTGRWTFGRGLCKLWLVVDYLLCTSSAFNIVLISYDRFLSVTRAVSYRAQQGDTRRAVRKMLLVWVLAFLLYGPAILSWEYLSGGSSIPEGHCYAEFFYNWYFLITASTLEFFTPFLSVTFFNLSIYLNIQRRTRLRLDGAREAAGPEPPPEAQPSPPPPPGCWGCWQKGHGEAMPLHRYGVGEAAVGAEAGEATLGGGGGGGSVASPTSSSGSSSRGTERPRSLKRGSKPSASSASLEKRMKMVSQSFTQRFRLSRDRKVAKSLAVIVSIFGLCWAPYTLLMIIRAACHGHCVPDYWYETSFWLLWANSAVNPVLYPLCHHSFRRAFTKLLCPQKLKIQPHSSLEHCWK
Sequence of 5HT6 receptors (P50406 whole entry): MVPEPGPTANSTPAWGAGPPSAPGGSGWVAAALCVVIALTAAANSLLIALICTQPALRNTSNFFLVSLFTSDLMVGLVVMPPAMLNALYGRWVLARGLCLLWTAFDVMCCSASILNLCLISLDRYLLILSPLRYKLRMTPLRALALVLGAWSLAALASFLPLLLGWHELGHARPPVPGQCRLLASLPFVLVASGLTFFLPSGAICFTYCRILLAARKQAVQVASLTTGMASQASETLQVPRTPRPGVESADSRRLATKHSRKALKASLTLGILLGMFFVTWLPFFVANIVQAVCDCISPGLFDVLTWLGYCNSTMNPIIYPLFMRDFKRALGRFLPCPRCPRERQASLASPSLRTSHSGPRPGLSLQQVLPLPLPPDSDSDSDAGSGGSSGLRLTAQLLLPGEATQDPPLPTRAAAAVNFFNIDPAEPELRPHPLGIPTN

CCN(CC)C(=O)[C@@H]1C=C2c3cccc4[nH]cc(c34)C[C@H]2N(C)C1 [LSD, lysergic acid diethylamide]
change in mean functional connectivity (Global Brain Connectivity, GBC) ([1]; acute administration, fMRI-derived cortical map): large increase in occipital visual cortex

Cc1nc2cccc(C(F)(F)F)c2c(=O)n1-c1ccc(OCCCN2CCCC2)cc1 [MK-0249]
improvement of cognitive deficits (histamine H3 receptor): failed to improve cognitive deficits

O=C1Nc2ccc(Cl)cc2[C@@](C#CC2CC2)(C(F)(F)F)O1 [efavirenz]
mode of action at 5HT6 receptors (5HT6 receptors): inverse agonist activity
mode of action at muscarinic M3 (CHRM3) receptor [2]: antagonist activity

O=C(c1ccc(F)cc1)C1CCN(CCn2c(=O)[nH]c3ccccc3c2=O)CC1 [ketanserin]
effect on LSD-induced neural change (GBC) ([1]; pre-administration before LSD): blocked
effect on behavioral effects of LSD ([1]; pre-administration before LSD): blocked
